For experiment [1], the target named is T1, Frizzled-7 (Homo sapiens, UniProt O75084). It is filed as cell-based. Particulars: cho.
Experiment [2] has as its target T1, Frizzled-7. Description: biochemical. It is filed as cell-based, CHO.
Experiment [3] has as its target T1, Frizzled-7. The following applies: CHO.
Description: Binding affinity to recombinant human Frizzled-7 (Gln33 to Leu185 residues)/human IgG1 chimeric protein expressed in CHO cells assessed as association rate constant by SPR assay

Results on seven compounds are retold here after ChEMBL document CHEMBL4373723 (J Med Chem, 2019).

Active and inactive are the calls of the source. No cut-off for these calls is given here. Bridge positions count the residues as written; N and C are the ends. Square brackets hold non-standard residues; d marks the D form. Peptide text beside a SMILES is read from it. I, II: the chains in the order shown. Phe(3-Cl) = N[C@@H](Cc1cccc(Cl)c1)C(=O)O; Phe(4-Me) = Cc1ccc(C[C@H](N)C(=O)O)cc1; tBuAla = CC(C)(C)C[C@H](N)C(=O)O; Cha = N[C@@H](CC1CCCCC1)C(=O)O

As to `CSCC[C@H](NC(=O)[C@@H](NC(=O)[C@H](Cc1cnc[nH]1)NC(=O)[C@H](CSSC[C@H](NC(=O)[C@H](Cc1c[nH]c2ccccc12)NC(=O)[C@H](Cc1cccc(Cl)c1)NC(=O)[C@H](CCC(=O)O)NC(=O)[C@H](CC(C)C)NC(=O)[C@H](CC(=O)O)NC(=O)[C@H](CC(=O)O)NC(=O)[C@H](CO)NC(C)=O)C(=O)N[C@@H](Cc1cnc[nH]1)C(=O)N[C@H](C(=O)N[C@@H](CCSC)C(=O)N[C@@H](Cc1ccc(O)cc1)C(N)=O)C(C)C)NC(=O)[C@H](Cc1c[nH]c2ccccc12)NC(=O)[C@H](Cc1cccc(Cl)c1)NC(=O)[C@H](CCC(=O)O)NC(=O)[C@H](CC(C)C)NC(=O)[C@H](CC(=O)O)NC(=O)[C@H](CC(=O)O)NC(=O)[C@H](CO)NC(C)=O)C(C)C)C(=O)N[C@@H](Cc1ccc(O)cc1)C(N)=O` (I: Ac-SDDLE[Phe(3-Cl)]WCHVMY-NH2 / II: Ac-SDDLE[Phe(3-Cl)]WCHVMY-NH2; disulfide I:8-II:8), the figures for the Kd at Frizzled-7 [1] and on Frizzled-7 [2] (read-out: Kd) were 0.63 ×10⁻³ /s and 0.1 nM, respectively. On Frizzled-7 [3], the Ka came out at 66.3 ×10⁵ /M/s.

Turning to `CSCC[C@H](NC(=O)[C@@H](NC(=O)[C@H](Cc1cnc[nH]1)NC(=O)[C@H](CO)NC(=O)[C@H](Cc1c[nH]c2ccccc12)NC(=O)[C@H](Cc1ccccc1)NC(=O)[C@H](CCC(=O)O)NC(=O)[C@H](CC(C)C)NC(=O)[C@H](CC(=O)O)NC(=O)[C@H](CC(=O)O)NC(=O)[C@H](CO)NC(=O)[C@@H]1CCCN1C(=O)[C@H](CC(C)C)NC(C)=O)C(C)C)C(=O)N[C@@H](Cc1ccc(O)cc1)C(N)=O` (Ac-LPSDDLEFWSHVMY-NH2), the Kd entry on Frizzled-7 [1] and on Frizzled-7 [2] (cho) was “Not Active” each time. The Ka result on Frizzled-7 [3] is “inactive”.

For `CSCC[C@H](NC(=O)[C@@H](CC1CC1)NC(=O)[C@H](Cc1cnc[nH]1)NC(=O)[C@H](CSSC[C@H](NC(=O)[C@H](Cc1c[nH]c2ccccc12)NC(=O)[C@H](Cc1ccccc1)NC(=O)[C@H](CCC(=O)O)NC(=O)[C@H](CC(C)C)NC(=O)[C@H](CC(=O)O)NC(=O)[C@H](CC(=O)O)NC(=O)[C@H](CO)NC(C)=O)C(=O)N[C@@H](Cc1cnc[nH]1)C(=O)N[C@H](CC1CC1)C(=O)N[C@@H](CCSC)C(=O)N[C@@H](Cc1ccc(O)cc1)C(N)=O)NC(=O)[C@H](Cc1c[nH]c2ccccc12)NC(=O)[C@H](Cc1ccccc1)NC(=O)[C@H](CCC(=O)O)NC(=O)[C@H](CC(C)C)NC(=O)[C@H](CC(=O)O)NC(=O)[C@H](CC(=O)O)NC(=O)[C@H](CO)NC(C)=O)C(=O)N[C@@H](Cc1ccc(O)cc1)C(N)=O`, the Kd on Frizzled-7 [1] is 1.26 ×10⁻³ /s; at Frizzled-7 [2] (cho, read-out: Kd), 0.16 nM. On Frizzled-7 [3], this compound gave a Ka of 80.4 ×10⁵ /M/s.

`CSCC[C@H](NC(=O)[C@@H](CC1CCC1)NC(=O)[C@H](Cc1cnc[nH]1)NC(=O)[C@H](CSSC[C@H](NC(=O)[C@H](Cc1c[nH]c2ccccc12)NC(=O)[C@H](Cc1ccccc1)NC(=O)[C@H](CCC(=O)O)NC(=O)[C@H](CC(C)C)NC(=O)[C@H](CC(=O)O)NC(=O)[C@H](CC(=O)O)NC(=O)[C@H](CO)NC(C)=O)C(=O)N[C@@H](Cc1cnc[nH]1)C(=O)N[C@H](CC1CCC1)C(=O)N[C@@H](CCSC)C(=O)N[C@@H](Cc1ccc(O)cc1)C(N)=O)NC(=O)[C@H](Cc1c[nH]c2ccccc12)NC(=O)[C@H](Cc1ccccc1)NC(=O)[C@H](CCC(=O)O)NC(=O)[C@H](CC(C)C)NC(=O)[C@H](CC(=O)O)NC(=O)[C@H](CC(=O)O)NC(=O)[C@H](CO)NC(C)=O)C(=O)N[C@@H](Cc1ccc(O)cc1)C(N)=O`: the Kd came out at 2.13 ×10⁻³ /s on Frizzled-7 [1] and 0.4 nM at Frizzled-7 [2] (cho, read-out: Kd). Moreover, on Frizzled-7 [3], the Ka amounted to 53 ×10⁵ /M/s.

With `CSCC[C@H](NC(=O)[C@@H](NC(=O)[C@H](Cc1cnc[nH]1)NC(=O)[C@H](CSSC[C@H](NC(=O)[C@H](Cc1c[nH]c2ccccc12)NC(=O)[C@H](Cc1ccccc1)NC(=O)[C@H](CCC(=O)O)NC(=O)[C@H](CC1CCCCC1)NC(=O)[C@H](CC(=O)O)NC(=O)[C@H](CC(=O)O)NC(=O)[C@H](CO)NC(C)=O)C(=O)N[C@@H](Cc1cnc[nH]1)C(=O)N[C@H](C(=O)N[C@@H](CCSC)C(=O)N[C@@H](Cc1ccc(O)cc1)C(N)=O)C(C)C)NC(=O)[C@H](Cc1c[nH]c2ccccc12)NC(=O)[C@H](Cc1ccccc1)NC(=O)[C@H](CCC(=O)O)NC(=O)[C@H](CC1CCCCC1)NC(=O)[C@H](CC(=O)O)NC(=O)[C@H](CC(=O)O)NC(=O)[C@H](CO)NC(C)=O)C(C)C)C(=O)N[C@@H](Cc1ccc(O)cc1)C(N)=O` (I: Ac-SDD[Cha]EFWCHVMY-NH2 / II: Ac-SDD[Cha]EFWCHVMY-NH2; disulfide I:8-II:8), the Kd on Frizzled-7 [1] turned out to be 75.1 ×10⁻³ /s; at Frizzled-7 [2] (read-out: Kd) it was 13.7 nM. This compound also came in with a Ka at Frizzled-7 [3] of 56.7 ×10⁵ /M/s.

For `CSCC[C@H](NC(=O)[C@@H](NC(=O)[C@H](Cc1cnc[nH]1)NC(=O)[C@H](CSSC[C@H](NC(=O)[C@H](Cc1c[nH]c2ccccc12)NC(=O)[C@H](Cc1ccccc1)NC(=O)[C@H](CCC(=O)O)NC(=O)[C@H](CC(C)C)NC(=O)[C@H](CC(=O)O)NC(=O)[C@H](CC(=O)O)NC(=O)[C@H](CO)NC(C)=O)C(=O)N[C@@H](Cc1cnc[nH]1)C(=O)N[C@H](C(=O)N[C@@H](CCSC)C(=O)N[C@@H](Cc1ccc(C)cc1)C(N)=O)C(C)C)NC(=O)[C@H](Cc1c[nH]c2ccccc12)NC(=O)[C@H](Cc1ccccc1)NC(=O)[C@H](CCC(=O)O)NC(=O)[C@H](CC(C)C)NC(=O)[C@H](CC(=O)O)NC(=O)[C@H](CC(=O)O)NC(=O)[C@H](CO)NC(C)=O)C(C)C)C(=O)N[C@@H](Cc1ccc(C)cc1)C(N)=O` (I: Ac-SDDLEFWCHVM[Phe(4-Me)]-NH2 / II: Ac-SDDLEFWCHVM[Phe(4-Me)]-NH2; disulfide I:8-II:8), the Kd on Frizzled-7 [1] is 0.98 ×10⁻³ /s; on Frizzled-7 [2] (read-out: Kd), 0.97 nM. The compound also came in with a Ka on Frizzled-7 [3] of 10.2 ×10⁵ /M/s.

On to `CSCC[C@H](NC(=O)[C@@H](NC(=O)[C@H](Cc1cnc[nH]1)NC(=O)[C@H](CSSC[C@H](NC(=O)[C@H](Cc1c[nH]c2ccccc12)NC(=O)[C@H](Cc1ccccc1)NC(=O)[C@H](CCC(=O)O)NC(=O)[C@H](CC(C)(C)C)NC(=O)[C@H](CC(=O)O)NC(=O)[C@H](CC(=O)O)NC(=O)[C@H](CO)NC(C)=O)C(=O)N[C@@H](Cc1cnc[nH]1)C(=O)N[C@H](C(=O)N[C@@H](CCSC)C(=O)N[C@@H](Cc1ccc(O)cc1)C(N)=O)C(C)C)NC(=O)[C@H](Cc1c[nH]c2ccccc12)NC(=O)[C@H](Cc1ccccc1)NC(=O)[C@H](CCC(=O)O)NC(=O)[C@H](CC(C)(C)C)NC(=O)[C@H](CC(=O)O)NC(=O)[C@H](CC(=O)O)NC(=O)[C@H](CO)NC(C)=O)C(C)C)C(=O)N[C@@H](Cc1ccc(O)cc1)C(N)=O` (I: Ac-SDD[tBuAla]EFWCHVMY-NH2 / II: Ac-SDD[tBuAla]EFWCHVMY-NH2; disulfide I:8-II:8), for which the Kd on Frizzled-7 [1] is 0.95 ×10⁻³ /s; at Frizzled-7 [2] (read-out: Kd), 0.22 nM. This compound also registered a Ka at Frizzled-7 [3] of 44 ×10⁵ /M/s.
